Consider 33 compounds from US8846684B2 (priority 2011, dated 2014).

This test concerns WEEV replicon. Briefly: microbe, parasite or virus in culture. The class given is cell-based, Western equine encephalitis virus. Conditions: Western equine encephalitis virus; for activity at 50 µM: read-out: 50 μM (% control) Luc.

Consider `Cn1ccc(CNC(=O)C2CCN(C(=O)c3cc4ccccc4n3Cc3ccc(Cl)cc3)CC2)n1` [CCG 205454, 1-(1-(4-chlorobenzyl)-1H-indole-2-carbonyl)-N-((1-methyl-1H-pyrazol-3-yl)methyl)piperidine-4-carboxamide], for which the IC50 (in general, the concentration at which inhibition is half-maximal) was determined as 76.9 µM and the activity at 50 µM is 46.6%.

With `Cn1cnc(CNC(=O)C2CCN(C(=O)c3cc4ccccc4n3Cc3ccc(Cl)cc3)CC2)c1` [CCG 205455, 1-(1-(4-chlorobenzyl)-1H-indole-2-carbonyl)-N-((1-methyl-1H-imidazol-4-yl)methyl)piperidine-4-carboxamide], the activity at 50 µM was 50.8%.

Consider `O=C(NCCc1ccccn1)C1CCN(C(=O)c2cc3ccccc3n2Cc2ccc(Cl)cc2)CC1` [CCG 205456, 1-(1-(4-chlorobenzyl)-1H-indole-2-carbonyl)-N-(2-(pyridin-2-yl)ethyl)piperidine-4-carboxamide], for which the IC50 worked out at 22.4 µM and the activity at 50 µM stood at 24.1%.

Regarding `O=C(c1cc2ccccc2n1Cc1ccc(Cl)cc1)N1CCC(C(=O)N2Cc3ccccc3C2)CC1` [CCG 205470, (1-(4-chlorobenzyl)-1H-indol-2-yl)(4-(isoindoline-2-carbonyl)piperidin-1-yl)methanone], the activity at 50 µM turned out to be 51.8%.

As for `O=C(NC1Cc2ccccc2C1)C1CCN(C(=O)c2cc3ccccc3n2Cc2ccc(Cl)cc2)CC1` [CCG 205471, 1-(1-(4-chlorobenzyl)-1H-indole-2-carbonyl)-N-(2,3-dihydro-1H-inden-2-yl)piperidine-4-carboxamide], the activity at 50 µM was 60.9%.

`O=C(c1cc2ccccc2n1Cc1ccc(Cl)cc1)N1CCC(C(=O)N2CCCC2c2ccccc2)CC1` (stereo not shown) [CCG 205473, (1-(4-chlorobenzyl)-1H-indol-2-yl)(4-(2-phenylpyrrolidine-1-carbonyl)piperidin-1-yl)methanone]: the activity at 50 µM is 33.9%.

`O=C(c1cc2ccccc2n1Cc1ccc(Cl)cc1)N1CCC(C(=O)N2CCC(c3ccccc3)C2)CC1` (stereo not shown) [CCG 205474, (1-(4-chlorobenzyl)-1H-indol-2-yl)(4-(3-phenylpyrrolidine-1-carbonyl)piperidin-1-yl)methanone]: the activity at 50 µM was 57.1%.

For the compound `O=C(c1cc2ccccc2n1Cc1ccc(Cl)cc1)N1CCC(CN2CCCCC2)CC1` [CCG 205476, (1-(4-chlorobenzyl)-1H-indol-2-yl)(4-(piperidin-1-ylmethyl)piperidin-1-yl)methanone], the IC50 was determined as 9.8 µM and the activity at 50 µM amounted to 6.5%.

Take `COc1ccc(Cn2c(C(=O)N3CCC(C(=O)N(C)Cc4ccccc4)CC3)cc3ccccc32)cc1` [CCG 205477, N-benzyl-1-(1-(4-methoxybenzyl)-1H-indole-2-carbonyl)-N-methylpiperidine-4-carboxamide]: half-maximal inhibition (IC50) was put at 16.5 µM and the activity at 50 µM was 33.3%.

As to `O=C(NCc1ccccc1)C1CCCN(C(=O)c2cc3ccccc3n2Cc2ccc(Cl)cc2)C1` (stereo not shown) [CCG 205483, N-benzyl-1-(1-(4-chlorobenzyl)-1H-indole-2-carbonyl)piperidine-3-carboxamide], 30.6 µM corresponded to half-maximal inhibition (IC50) and the activity at 50 µM is 44.1%.

Regarding `CN(Cc1ccccc1)C(=O)C1CCN(C(=O)c2cc3ccccc3n2Cc2ccc([N+](=O)[O-])cc2)CC1` [CCG 205484, N-benzyl-N-methyl-1-(1-(4-nitrobenzyl)-1H-indole-2-carbonyl)piperidine-4-carboxamide], the IC50 was 41.9 µM and the activity at 50 µM was found to be 54%.

Regarding `O=C(c1cc2ccccc2n1Cc1ccc(Cl)cc1)N1CCN(Cc2ccccc2)CC1` [CCG 206327, (4-benzylpiperazin-1-yl)(1-(4-chlorobenzyl)-1H-indol-2-yl)methanone], the IC50 amounted to 11.5 µM and the activity at 50 µM came out at 33.3%.

Regarding `CC(NC(=O)C1CCN(C(=O)c2cc3ccccc3n2Cc2ccc(Cl)cc2)CC1)c1ccncc1` (stereo not shown) [CCG 206329, 1-(1-(4-chlorobenzyl)-1H-indole-2-carbonyl)-N-(1-(pyridin-4-yl)ethyl)piperidine-4-carboxamide], the IC50 is 2.39 µM and the activity at 50 µM turned out to be 12.7%.

Take `CN(Cc1ccccc1)C(=O)C1CCN(C(=O)c2cc3ccccc3n2Cc2ccc(C#N)cc2)CC1` [CCG 206330, N-benzyl-1-(1-(4-cyanobenzyl)-1H-indole-2-carbonyl)-N-methylpiperidine-4-carboxamide]: it took 79.3 µM to reach half-maximal inhibition (IC50) and the activity at 50 µM was 45.2%.

`COCCn1c(C(=O)N2CCC(C(=O)N(C)Cc3ccccc3)CC2)cc2ccccc21` [CCG 206331, N-benzyl-1-(1-(2-methoxyethyl)-1H-indole-2-carbonyl)-N-methylpiperidine-4-carboxamide]: the activity at 50 µM is 74.5%.

As to `CC(C)Cn1c(C(=O)N2CCC(C(=O)N(C)Cc3ccccc3)CC2)cc2ccccc21` [CCG 206332, N-benzyl-1-(1-isobutyl-1H-indole-2-carbonyl)-N-methylpiperidine-4-carboxamide], the 50% inhibitory concentration (IC50) was found to be 27.9 µM and the activity at 50 µM came out at 1.7%.

`CC(=O)n1c(C(=O)N2CCC(C(=O)N(C)Cc3ccccc3)CC2)cc2ccccc21` [CCG 206333, 1-(1-acetyl-1H-indole-2-carbonyl)-N-benzyl-N-methylpiperidine-4-carboxamide]: the activity at 50 µM is 58.5%.

For `O=C(Nc1ccccc1)C1CCN(C(=O)c2cc3ccccc3n2Cc2ccc(Cl)cc2)CC1` [CCG 206334, 1-(1-(4-chlorobenzyl)-1H-indole-2-carbonyl)-N-phenylpiperidine-4-carboxamide], the activity at 50 µM was 77.3%.

In the case of `O=C(NCCc1ccncc1)C1CCN(C(=O)c2cccn2Cc2ccc(Cl)cc2)CC1` [CCG 206381, 1-(1-(4-chlorobenzyl)-1H-pyrrole-2-carbonyl)-N-(2-(pyridin-4-yl)ethyl)piperidine-4-carboxamide], the 50% inhibitory concentration (IC50) is 0.68 µM and the activity at 50 µM was 9.9%.

On to `O=C(NCC1Cc2ccccc2C1)C1CCN(C(=O)c2cc3ccccc3n2Cc2ccc(Cl)cc2)CC1` [CCG 206382, 1-(1-(4-chlorobenzyl)-1H-indole-2-carbonyl)-N-((2,3-dihydro-1H-inden-2-yl)methyl)piperidine-4-carboxamide], for which the IC50 amounted to 0.53 µM and the activity at 50 µM worked out at 25.8%.

For the compound `COc1cccc(CCNC(=O)C2CCN(C(=O)c3cc4ccccc4n3Cc3ccc(Cl)cc3)CC2)c1` [CCG 206395, 1-(1-(4-chlorobenzyl)-1H-indole-2-carbonyl)-N-(3-methoxyphenethyl)piperidine-4-carboxamide], the midpoint of inhibition, the IC50, lay at 11.7 µM and the activity at 50 µM amounted to 38.4%.

As for `O=C(NCCc1ccc(F)cc1)C1CCN(C(=O)c2cc3ccccc3n2Cc2ccc(Cl)cc2)CC1` [CCG 206396, 1-(1-(4-chlorobenzyl)-1H-indole-2-carbonyl)-N-(4-fluorophenethyl)piperidine-4-carboxamide], the IC50 was 10.6 µM and the activity at 50 µM was 34.9%.

For `O=C(NCCc1ccccc1)C1CCN(C(=O)c2cc3ccccc3n2Cc2ccc(Cl)cc2)CC1` [CCG 206397, 1-(1-(4-chlorobenzyl)-1H-indole-2-carbonyl)-N-phenethylpiperidine-4-carboxamide], the IC50 is 15.2 µM and the activity at 50 µM amounted to 40.2%.

Take `COc1ccc(CCNC(=O)C2CCN(C(=O)c3cc4ccccc4n3Cc3ccc(Cl)cc3)CC2)cc1` [CCG 206398, 1-(1-(4-chlorobenzyl)-1H-indole-2-carbonyl)-N-(4-methoxyphenethyl)piperidine-4-carboxamide]: the concentration for half-maximal inhibition (IC50) came to 7.1 µM and the activity at 50 µM worked out at 12.9%.

Take `O=C(NCc1cccc(F)c1)C1CCN(C(=O)c2cc3ccccc3n2Cc2ccc(Cl)cc2)CC1` [CCG 206399, 1-(1-(4-chlorobenzyl)-1H-indole-2-carbonyl)-N-(3-fluorobenzyl)piperidine-4-carboxamide]: the activity at 50 µM was 50.4%.

Turning to `O=C(NCCc1ccc(Cl)cc1)C1CCN(C(=O)c2cc3ccccc3n2Cc2ccc(Cl)cc2)CC1` [CCG 206400, 1-(1-(4-chlorobenzyl)-1H-indole-2-carbonyl)-N-(4-chlorophenethyl)piperidine-4-carboxamide], half-maximal inhibition (IC50) required 7.45 µM and the activity at 50 µM is 28.6%.

In the case of `C#CCn1c(C(=O)N2CCC(C(=O)N(C)Cc3ccccc3)CC2)cc2ccccc21` [CCG 206401, N-benzyl-N-methyl-1-(1-(prop-2-yn-1-yl)-1H-indole-2-carbonyl)piperidine-4-carboxamide], the activity at 50 µM is 57.4%.

As for `Cc1cccc2cc(C(=O)N3CCC(C(=O)NCc4ccccc4)CC3)n(Cc3ccc(Cl)cc3)c12` [CCG 206447, N-benzyl-1-(1-(4-chlorobenzyl)-7-methyl-1H-indole-2-carbonyl)piperidine-4-carboxamide], the IC50 worked out at 60.7 µM and the activity at 50 µM was found to be 46.8%.

As to `CC(C)c1ccc(CCNC(=O)C2CCN(C(=O)c3cc4ccccc4n3Cc3ccc(Cl)cc3)CC2)cc1` [CCG 206461, 1-(1-(4-chlorobenzyl)-1H-indole-2-carbonyl)-N-(4-isopropylphenethyl)piperidine-4-carboxamide], the 50% inhibitory concentration (IC50) came to 2.9 µM and the activity at 50 µM worked out at 32.6%.

As for `O=C(c1cc2ccccc2n1Cc1ccc(Cl)cc1)N1CCC2C(=O)N(Cc3ccccc3)CC2C1` (stereo not shown) [CCG 206485, 2-benzyl-5-(1-(4-chlorobenzyl)-1H-indole-2-carbonyl)octahydro-1H-pyrrolo[3,4-c]pyridin-1-one], the IC50 came to 17.1 µM and the activity at 50 µM amounted to 39.4%.

Turning to `Cc1ccc(CCNCC2CCN(C(=O)c3cc4ccccc4n3Cc3ccc(F)cc3)CC2)cc1` [CCG 206486, (1-(4-fluorobenzyl)-1H-indol-2-yl)(4-(((4-methylphenethyl)amino)methyl)piperidin-1-yl)methanone], the half-maximal inhibitory concentration (IC50) stood at 6.1 µM and the activity at 50 µM was 0%.

Take `C[C@@H](NCC1CCN(C(=O)c2cc3ccccc3n2Cc2ccc(F)cc2)CC1)c1ccccc1` [CCG 206499, (R)-(1-(4-fluorobenzyl)-1H-indol-2-yl)(4-(((1-phenylethyl)amino)methyl)piperidin-1-yl)methanone]: the activity at 50 µM stood at 0%.

Take `O=C(c1cc2ccccc2n1Cc1ccc(F)cc1)N1CCC(CNCc2ccccc2)CC1` [CCG 206500, (4-((benzylamino)methyl)piperidin-1-yl)(1-(4-fluorobenzyl)-1H-indol-2-yl)methanone]: it took 6.5 µM to reach half-maximal inhibition (IC50) and the activity at 50 µM worked out at 0%.
